Measured values reported in patent US7666868B2, “N-sulphonylpyrroles and their use as histone deacetylase inhibitors” (4SC AG, priority 2005, dated 2010).

Tests used:
[1] = test system: histone H3 acetylation (lysine 9+14) in HeLa cervical carcinoma cells; experiment: Cellular histone H3 acetylation assay; type: cell-based; conditions: Homo sapiens, 24 h incubation with compound, read-out: EC50 (histone H3 acetylating cellular potency)
Excerpt: To assess the cellular efficacy of an histone deactylase inhibitor in vitro, an assay is set up in black clear-bottom 96-well plates and optimized for use on the Cellomics “ArrayScan II” platform for a quantitative calculation of histone acetylation. The protocol uses a polyclonal rabbit antibody, specifically binding to acetylated lysine 9+14 of human histone H3 on fixed cells with an Alexa Fluor 488 labeled goat ant rabbit-IgG used for counterstaining (modified from Braunger et al. MCR annual conference 2003, Abstract 4556).
5×10^3 HeLa cervical carcinoma cells/well (ATCC CCL-2) in 200 μl Dulbecco's modified Eagle's medium (DMEM) containing 10% fetal calf serum are seeded at day 1 in Packard view plates and incubated for 24 h under standard cell culture conditions. On day 2, 2 μl test compound (100× final concentration) is added and incubation continued for further 24 h. On day 3, the culture medium is discarded and attached cells fixed for 15 min at room temperature by addition of 100 μl fixation buffer (3.7% v:v formaldehyde in phosphate buffered saline/PBS). After discarding the fixation buffer and one wash with PBS, cells are permeabilized at room temperature by addition of 100 μl/well permeabilization buffer (30.8 mM NaCl, 0.54 mM Na2HPO4, 0.31 mM KH2PO4, 5% v:v Triton X-100) for 15 min at room temperature. After discarding the permeabilization buffer and washing twice with 100 μl/well blocking solution (PBS with 0.05% v:v Tween 20 and 5% w:v milk powder) at room temperature, the 1st antibody (anti-K9+14 histone H3 antibody, Calbiochem No. 382158) in blocking solution (50 μl/well) is added. After incubation for 1 h at 37° C., the wells are washed twice at room temperature with 100 μl/well blocking solution before addition of the 2nd antibody (goat-anti-rabbit Alexa Fluor 488; MoBiTec No. A-11008) in blocking solution (50 μl/well). After further incubation for 1 h at 37° C., wells are washed twice with 100 μl/well blocking solution room temperature. Finally, 100 d/well PBS are added and image analysis performed on the Cellomics “ArrayScan II” platform. For calculation of EC50 values, the nuclear fluorescence in cells treated with and without a reference HDAC inhibitor (eg NVP-LBH-589) are taken as a positive and negative control. For EC50 determination, the percentage of positive cells is determined and EC50 calculation done from concentration-effect curves by means of non-linear regression.

In the case of O=C(/C=C/c1ccn(S(=O)(=O)c2cc(-c3ccccc3)ccc2CCCN2CCOCC2)c1)NO [Compound 45, (E)-N-Hydroxy-3-{1-[4-(3-morpholin-4-yl-propyl)-biphenyl-3-sulfonyl]-1H-pyrrol-3-yl}-acrylamide], the EC50 [1] is reported as 0.027 to 4.4 µM and the melting point is reported as 215 to 217 °C.
